Test results as given in article PMC4685510, “A Cell Biologist’s Field Guide to Aurora Kinase Inhibitors” (Frontiers in Oncology, 2015).

Assays:
Experiment in all cases: biochemical
Format in all cases: biochemical
[1] = target: 363 human kinases (including Aurora A/B/C) (Homo sapiens, UniProt P22612); settings: PKAcg; for remaining activity at 0.1 µM: 100 nM; for remaining activity at 0.1 µM / remaining activity at 0.5 µM: read-out: % Enzyme Activity (relative to DMSO controls)
Excerpt: (§1) However, the Aurora A/B selectivity ratios derived from our in vitro and in vivo data can be compared to prioritize inhibitors.

[2] = target: 363 human kinases (including Aurora A/B/C) (Homo sapiens, UniProt P29597); settings: TYK2; for remaining activity at 0.1 µM: 100 nM; for remaining activity at 0.1 µM / remaining activity at 0.5 µM: read-out: % Enzyme Activity (relative to DMSO controls)
Chain of 363 human kinases (including Aurora A/B/C) (Homo sapiens, UniProt P29597) (P29597 whole entry): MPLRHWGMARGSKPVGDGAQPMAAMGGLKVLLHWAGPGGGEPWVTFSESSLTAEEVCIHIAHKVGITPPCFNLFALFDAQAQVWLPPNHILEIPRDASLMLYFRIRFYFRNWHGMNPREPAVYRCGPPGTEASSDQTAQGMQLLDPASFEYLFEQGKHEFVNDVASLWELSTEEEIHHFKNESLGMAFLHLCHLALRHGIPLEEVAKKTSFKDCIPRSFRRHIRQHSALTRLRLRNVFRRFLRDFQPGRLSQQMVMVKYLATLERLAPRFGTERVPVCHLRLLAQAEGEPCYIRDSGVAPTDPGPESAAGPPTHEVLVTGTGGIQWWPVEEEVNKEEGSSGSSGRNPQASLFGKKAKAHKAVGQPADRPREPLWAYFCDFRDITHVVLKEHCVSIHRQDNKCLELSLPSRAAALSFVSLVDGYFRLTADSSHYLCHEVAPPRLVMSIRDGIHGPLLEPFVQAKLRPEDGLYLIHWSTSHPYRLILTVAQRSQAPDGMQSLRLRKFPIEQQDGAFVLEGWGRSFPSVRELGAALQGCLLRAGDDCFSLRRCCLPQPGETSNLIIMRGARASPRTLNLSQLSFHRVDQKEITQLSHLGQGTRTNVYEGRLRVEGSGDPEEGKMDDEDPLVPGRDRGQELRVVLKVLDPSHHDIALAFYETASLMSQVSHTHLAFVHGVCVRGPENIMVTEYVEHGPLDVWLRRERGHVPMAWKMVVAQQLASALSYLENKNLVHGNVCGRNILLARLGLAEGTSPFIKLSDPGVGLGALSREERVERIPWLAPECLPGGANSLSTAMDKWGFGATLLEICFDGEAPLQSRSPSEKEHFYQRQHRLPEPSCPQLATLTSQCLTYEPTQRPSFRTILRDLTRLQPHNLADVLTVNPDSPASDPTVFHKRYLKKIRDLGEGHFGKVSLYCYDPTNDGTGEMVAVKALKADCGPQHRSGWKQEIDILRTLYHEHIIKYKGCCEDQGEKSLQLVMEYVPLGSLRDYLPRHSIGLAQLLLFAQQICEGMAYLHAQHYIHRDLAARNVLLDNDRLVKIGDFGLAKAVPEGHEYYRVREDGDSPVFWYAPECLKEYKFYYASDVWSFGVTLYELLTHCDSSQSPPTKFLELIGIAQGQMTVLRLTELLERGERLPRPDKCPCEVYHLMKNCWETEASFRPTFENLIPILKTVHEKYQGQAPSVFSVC
Excerpt: as §1

[3] = target: T1, 363 human kinases (including Aurora A/B/C) (Homo sapiens, UniProt P30530); settings: AXL, [ATP] 100 µM; for remaining activity at 0.1 µM: 100 nM; for remaining activity at 0.1 µM / remaining activity at 0.5 µM: read-out: % Enzyme Activity (relative to DMSO controls)
T1 sequence (P30530 26-894): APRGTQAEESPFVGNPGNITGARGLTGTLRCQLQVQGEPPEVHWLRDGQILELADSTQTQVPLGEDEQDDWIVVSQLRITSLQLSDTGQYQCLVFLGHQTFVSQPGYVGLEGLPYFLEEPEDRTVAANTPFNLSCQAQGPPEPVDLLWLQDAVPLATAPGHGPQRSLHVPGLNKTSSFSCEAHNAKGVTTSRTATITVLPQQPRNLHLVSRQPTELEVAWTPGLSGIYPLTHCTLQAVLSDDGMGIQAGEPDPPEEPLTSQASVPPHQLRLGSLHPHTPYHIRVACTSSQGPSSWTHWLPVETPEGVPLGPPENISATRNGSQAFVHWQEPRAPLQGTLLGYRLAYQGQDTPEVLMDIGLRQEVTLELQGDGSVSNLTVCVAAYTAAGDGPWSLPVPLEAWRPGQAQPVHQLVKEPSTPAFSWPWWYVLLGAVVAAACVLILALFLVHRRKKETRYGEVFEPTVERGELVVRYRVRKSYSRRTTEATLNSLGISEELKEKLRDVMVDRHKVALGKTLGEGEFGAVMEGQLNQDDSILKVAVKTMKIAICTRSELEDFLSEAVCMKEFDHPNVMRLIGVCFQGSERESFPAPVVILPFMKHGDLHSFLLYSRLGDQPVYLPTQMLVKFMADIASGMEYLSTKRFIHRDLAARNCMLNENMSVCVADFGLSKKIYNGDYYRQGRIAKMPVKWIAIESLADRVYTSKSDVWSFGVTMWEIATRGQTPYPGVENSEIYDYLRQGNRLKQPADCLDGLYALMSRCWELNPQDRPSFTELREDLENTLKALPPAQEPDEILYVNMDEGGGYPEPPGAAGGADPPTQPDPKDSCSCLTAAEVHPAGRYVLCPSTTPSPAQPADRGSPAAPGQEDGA
Excerpt: as §1

[4] = target: T2, 363 human kinases (including Aurora A/B/C) (Homo sapiens, UniProt P51955); settings: NEK2; for remaining activity at 0.1 µM: 100 nM; for remaining activity at 0.1 µM / remaining activity at 0.5 µM: read-out: % Enzyme Activity (relative to DMSO controls)
T2 sequence (P51955 1-445): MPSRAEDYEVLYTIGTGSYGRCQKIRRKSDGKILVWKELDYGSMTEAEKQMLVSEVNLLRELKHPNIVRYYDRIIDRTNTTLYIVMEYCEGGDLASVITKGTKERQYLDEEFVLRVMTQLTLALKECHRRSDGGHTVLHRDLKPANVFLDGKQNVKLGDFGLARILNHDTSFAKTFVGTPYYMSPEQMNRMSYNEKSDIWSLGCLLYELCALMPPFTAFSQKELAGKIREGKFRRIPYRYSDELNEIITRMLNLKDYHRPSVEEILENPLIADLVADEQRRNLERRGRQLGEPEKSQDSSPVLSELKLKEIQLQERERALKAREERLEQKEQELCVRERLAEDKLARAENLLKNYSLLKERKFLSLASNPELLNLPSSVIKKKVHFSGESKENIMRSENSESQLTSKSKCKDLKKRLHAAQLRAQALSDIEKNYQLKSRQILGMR
Excerpt: as §1

[5] = target: 363 human kinases (including Aurora A/B/C) (Homo sapiens, UniProt Q04759); settings: PKCtheta; for remaining activity at 0.1 µM: 100 nM; for remaining activity at 0.1 µM / remaining activity at 0.5 µM: read-out: % Enzyme Activity (relative to DMSO controls)
Chain of 363 human kinases (including Aurora A/B/C) (Homo sapiens, UniProt Q04759) (Q04759 whole entry): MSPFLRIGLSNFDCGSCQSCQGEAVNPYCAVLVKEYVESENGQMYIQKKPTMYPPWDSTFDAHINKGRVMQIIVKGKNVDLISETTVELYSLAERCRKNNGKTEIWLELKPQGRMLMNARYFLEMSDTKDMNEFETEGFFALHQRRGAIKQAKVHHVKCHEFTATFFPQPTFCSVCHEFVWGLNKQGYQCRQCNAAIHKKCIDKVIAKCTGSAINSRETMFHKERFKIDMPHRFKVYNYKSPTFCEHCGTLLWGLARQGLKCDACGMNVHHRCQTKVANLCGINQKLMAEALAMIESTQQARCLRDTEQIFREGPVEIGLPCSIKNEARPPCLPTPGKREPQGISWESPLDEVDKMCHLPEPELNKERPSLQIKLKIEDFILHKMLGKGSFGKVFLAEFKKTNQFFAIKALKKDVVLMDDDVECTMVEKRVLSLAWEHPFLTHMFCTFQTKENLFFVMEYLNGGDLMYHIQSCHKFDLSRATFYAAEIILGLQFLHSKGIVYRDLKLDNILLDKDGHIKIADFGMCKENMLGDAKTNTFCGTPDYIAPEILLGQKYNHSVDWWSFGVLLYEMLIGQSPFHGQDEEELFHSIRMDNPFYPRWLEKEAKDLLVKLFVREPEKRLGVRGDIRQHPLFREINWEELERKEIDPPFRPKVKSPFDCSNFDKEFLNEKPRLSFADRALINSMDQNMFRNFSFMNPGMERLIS
Excerpt: as §1

[6] = target: T3, 363 human kinases (including Aurora A/B/C) (Homo sapiens, UniProt Q04771); settings: ALK2/ACVR1, [ATP] 20 µM; for remaining activity at 0.1 µM: 100 nM; for remaining activity at 0.1 µM / remaining activity at 0.5 µM: read-out: % Enzyme Activity (relative to DMSO controls)
T3 sequence (Q04771 21-509): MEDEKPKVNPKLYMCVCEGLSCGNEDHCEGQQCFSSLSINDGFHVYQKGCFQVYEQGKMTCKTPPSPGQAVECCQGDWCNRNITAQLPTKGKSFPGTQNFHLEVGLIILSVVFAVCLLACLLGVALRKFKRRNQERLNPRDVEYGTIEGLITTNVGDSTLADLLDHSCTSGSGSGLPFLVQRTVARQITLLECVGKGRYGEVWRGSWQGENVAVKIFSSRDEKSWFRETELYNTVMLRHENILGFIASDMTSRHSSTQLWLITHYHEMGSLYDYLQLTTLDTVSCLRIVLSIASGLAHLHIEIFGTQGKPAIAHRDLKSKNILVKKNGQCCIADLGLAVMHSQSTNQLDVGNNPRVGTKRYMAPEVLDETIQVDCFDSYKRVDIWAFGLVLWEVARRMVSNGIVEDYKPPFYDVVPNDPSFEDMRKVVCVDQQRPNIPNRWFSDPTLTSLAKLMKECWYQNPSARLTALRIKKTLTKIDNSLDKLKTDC
Excerpt: as §1

[7] = target: 363 human kinases (including Aurora A/B/C) (Homo sapiens, UniProt Q15208); settings: STK38/NDR1; for remaining activity at 0.1 µM: 100 nM; for remaining activity at 0.1 µM / remaining activity at 0.5 µM: read-out: % Enzyme Activity (relative to DMSO controls)
Chain of 363 human kinases (including Aurora A/B/C) (Homo sapiens, UniProt Q15208) (Q15208 whole entry): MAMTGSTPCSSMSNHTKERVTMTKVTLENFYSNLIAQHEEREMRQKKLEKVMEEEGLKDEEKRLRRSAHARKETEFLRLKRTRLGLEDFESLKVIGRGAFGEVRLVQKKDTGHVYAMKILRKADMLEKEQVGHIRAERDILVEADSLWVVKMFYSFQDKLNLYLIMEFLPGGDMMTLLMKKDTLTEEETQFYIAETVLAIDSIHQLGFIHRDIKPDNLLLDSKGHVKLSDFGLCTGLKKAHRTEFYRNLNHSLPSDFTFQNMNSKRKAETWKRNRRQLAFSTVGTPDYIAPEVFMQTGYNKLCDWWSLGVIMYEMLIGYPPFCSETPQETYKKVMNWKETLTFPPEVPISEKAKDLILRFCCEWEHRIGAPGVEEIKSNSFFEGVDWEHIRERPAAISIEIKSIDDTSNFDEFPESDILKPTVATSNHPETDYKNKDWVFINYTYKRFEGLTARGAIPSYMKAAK
Excerpt: as §1

[8] = target: 363 human kinases (including Aurora A/B/C) (Homo sapiens, UniProt Q15418); settings: RSK1; for remaining activity at 0.1 µM: 100 nM; for remaining activity at 0.1 µM / remaining activity at 0.5 µM: read-out: % Enzyme Activity (relative to DMSO controls)
Chain of 363 human kinases (including Aurora A/B/C) (Homo sapiens, UniProt Q15418) (Q15418 whole entry): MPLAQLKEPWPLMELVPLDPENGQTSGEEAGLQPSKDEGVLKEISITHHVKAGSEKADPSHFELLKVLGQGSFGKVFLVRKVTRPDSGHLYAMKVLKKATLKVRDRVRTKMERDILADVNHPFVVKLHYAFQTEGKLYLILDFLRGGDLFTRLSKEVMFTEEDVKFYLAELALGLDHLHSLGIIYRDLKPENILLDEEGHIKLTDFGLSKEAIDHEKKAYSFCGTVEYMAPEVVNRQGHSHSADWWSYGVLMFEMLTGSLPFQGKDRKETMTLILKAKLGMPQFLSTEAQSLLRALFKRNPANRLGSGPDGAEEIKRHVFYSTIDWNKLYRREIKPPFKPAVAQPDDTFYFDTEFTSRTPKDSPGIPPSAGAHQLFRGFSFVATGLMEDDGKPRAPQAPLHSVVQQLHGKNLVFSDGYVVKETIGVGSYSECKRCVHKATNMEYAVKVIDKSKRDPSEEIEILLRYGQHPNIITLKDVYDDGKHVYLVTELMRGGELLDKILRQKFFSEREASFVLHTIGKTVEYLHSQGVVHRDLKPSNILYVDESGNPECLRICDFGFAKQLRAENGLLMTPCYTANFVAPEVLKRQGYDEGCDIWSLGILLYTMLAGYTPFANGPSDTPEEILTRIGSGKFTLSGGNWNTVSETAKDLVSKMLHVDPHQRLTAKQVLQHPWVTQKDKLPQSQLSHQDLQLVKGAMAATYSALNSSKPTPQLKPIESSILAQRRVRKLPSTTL
Excerpt: as §1

[9] = target: 363 human kinases (including Aurora A/B/C) (Homo sapiens, UniProt Q8TDX7); settings: NEK7; for remaining activity at 0.1 µM: 100 nM; for remaining activity at 0.1 µM / remaining activity at 0.5 µM: read-out: % Enzyme Activity (relative to DMSO controls)
Chain of 363 human kinases (including Aurora A/B/C) (Homo sapiens, UniProt Q8TDX7) (Q8TDX7 whole entry): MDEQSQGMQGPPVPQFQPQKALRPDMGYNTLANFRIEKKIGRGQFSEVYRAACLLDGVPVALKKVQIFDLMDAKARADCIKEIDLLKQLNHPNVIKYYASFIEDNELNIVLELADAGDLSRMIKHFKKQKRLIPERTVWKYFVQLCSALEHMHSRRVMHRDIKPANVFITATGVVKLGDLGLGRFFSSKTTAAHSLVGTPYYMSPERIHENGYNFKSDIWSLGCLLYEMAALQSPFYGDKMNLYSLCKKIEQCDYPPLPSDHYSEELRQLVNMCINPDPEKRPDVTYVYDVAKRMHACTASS
Excerpt: as §1

[10] = target: 363 human kinases (including Aurora A/B/C) (Homo sapiens, UniProt Q9UIK4); settings: DAPK2, [ATP] 5 µM; for remaining activity at 0.1 µM: 100 nM; for remaining activity at 0.1 µM / remaining activity at 0.5 µM: read-out: % Enzyme Activity (relative to DMSO controls)
Chain of 363 human kinases (including Aurora A/B/C) (Homo sapiens, UniProt Q9UIK4) (Q9UIK4 whole entry): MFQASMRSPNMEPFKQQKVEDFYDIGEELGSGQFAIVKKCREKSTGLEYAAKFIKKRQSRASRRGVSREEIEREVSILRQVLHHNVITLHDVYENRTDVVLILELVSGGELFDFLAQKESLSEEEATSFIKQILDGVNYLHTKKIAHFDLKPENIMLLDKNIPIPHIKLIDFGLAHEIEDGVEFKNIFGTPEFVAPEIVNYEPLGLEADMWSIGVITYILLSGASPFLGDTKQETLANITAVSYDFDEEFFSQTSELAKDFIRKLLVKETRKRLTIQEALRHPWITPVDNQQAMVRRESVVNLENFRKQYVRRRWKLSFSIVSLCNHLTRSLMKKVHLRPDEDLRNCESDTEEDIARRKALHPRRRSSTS
Excerpt: as §1

Chain of 363 human kinases (including Aurora A/B/C) (Homo sapiens, UniProt P22612) (P22612 whole entry): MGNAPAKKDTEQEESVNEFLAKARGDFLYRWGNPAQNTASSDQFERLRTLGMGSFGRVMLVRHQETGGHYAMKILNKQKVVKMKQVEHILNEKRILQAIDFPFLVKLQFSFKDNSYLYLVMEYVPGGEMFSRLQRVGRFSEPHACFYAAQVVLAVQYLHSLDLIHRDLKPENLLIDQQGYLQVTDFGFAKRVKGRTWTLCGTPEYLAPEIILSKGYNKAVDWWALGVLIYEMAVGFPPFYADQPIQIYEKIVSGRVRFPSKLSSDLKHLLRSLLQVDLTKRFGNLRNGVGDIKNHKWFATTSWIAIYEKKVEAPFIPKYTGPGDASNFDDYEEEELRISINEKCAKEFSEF

| SMILES | remaining activity at 0.1 µM [1] | remaining activity at 0.1 µM [2] | remaining activity at 0.1 µM [3] | remaining activity at 0.1 µM [4] | remaining activity at 0.1 µM [5] | remaining activity at 0.1 µM [6] | remaining activity at 0.1 µM [7] | remaining activity at 0.1 µM [8] | remaining activity at 0.1 µM [9] | remaining activity at 0.1 µM [10] | remaining activity at 0.5 µM ([1]; 500 nM) | remaining activity at 0.5 µM ([2]; 500 nM) | remaining activity at 0.5 µM ([3]; 500 nM) | remaining activity at 0.5 µM ([4]; 500 nM) | remaining activity at 0.5 µM ([5]; 500 nM) | remaining activity at 0.5 µM ([6]; 500 nM) | remaining activity at 0.5 µM ([7]; 500 nM) | remaining activity at 0.5 µM ([8]; 500 nM) | remaining activity at 0.5 µM ([9]; 500 nM) | remaining activity at 0.5 µM ([10]; 500 nM) | other results |
| --- | --- | --- | --- | --- | --- | --- | --- | --- | --- | --- | --- | --- | --- | --- | --- | --- | --- | --- | --- | --- | --- |
| CCn1cc(-c2ccnc3[nH]c(-c4cccc(CN(C)C)c4)cc23)c(-c2ccc(NC(=O)N(C)C)cc2)n1 [GSK1070916] | 102% | 87% | 103% | 110% | 92.7% | 130% | 88% | 90% | 102% | 111% |  |  |  |  |  |  |  |  |  |  |  |
| O=C(O)[C@]1(Cc2cccc(Nc3nccs3)n2)CC[C@@H](Oc2cccc(Cl)c2F)CC1 [MK-5108] | 89.9% | 52.3% | 38.5% | 84.3% | 91.8% | 116% | 96% | 99.1% | 98.5% | 103% | 103% | 17% | 14% | 105% | 104% | 34.5% | 86.5% | 91.2% | 109% | 111% |  |
| O=C(c1cccc(Cl)c1F)N1CCN(Cc2cccc(Nc3nccs3)n2)CC1 [MK-8745] |  |  |  |  |  |  |  |  |  |  | 97.7% | 67.8% | 9.98% | 104% | 157% | 146% | 91.2% | 95.8% | 109% | 105% | % Enzyme Activity (relative to DMSO controls) ([1]; 500 nM): 97.46%; % Enzyme Activity (relative to DMSO controls) ([2]; 500 nM): 67.55%; % Enzyme Activity (relative to DMSO controls) ([3]; 500 nM): 9.19%; % Enzyme Activity (relative to DMSO controls) ([4]; 500 nM): 103.20%; % Enzyme Activity (relative to DMSO controls) ([5]; 500 nM): 152.58%; % Enzyme Activity (relative to DMSO controls) ([6]; 500 nM): 140.43%; % Enzyme Activity (relative to DMSO controls) ([7]; 500 nM): 90.44%; % Enzyme Activity (relative to DMSO controls) ([8]; 500 nM): 93.60%; % Enzyme Activity (relative to DMSO controls) ([9]; 500 nM): 107.51%; % Enzyme Activity (relative to DMSO controls) ([10]; 500 nM): 102.56% |
